The results in this text go back to patent US20260193264A1, “BENZOYPARAZINE PYRAZINES AND THEIR USES” (FOGHORN THERAPEUTICS INC., priority 2022, published 2026).

Molecules are shown by their SMILES.

Test [1] concerns the target T1, HiBiT-BRM fusion protein in stable HeLa cell line (Homo sapiens, UniProt P51531).
T1 construct: expressed in transfected cells
Kind of test: HiBiT-BRM cell-based degradation assay (Nano-Glo HiBiT Lytic Detection, 24 h). Details: DC50: scale not given here. Particulars: HeLa HiBiT-BRM cells; for DC50: read-out: BRM HiBit Degradation IC50; for BRM HiBit Degradation Maximum (%): top dose 30 μM. Put shortly:
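Luminescence from HiBiT/LgBiT complementation after lysis reports remaining HiBiT-BRM in stable HeLa cells exposed to compound for 24 h. Dosing used 3-fold serial dilutions, 10 points, 30 μM top final concentration. DMSO and a 2 μM BRM/BRG1 degrader standard defined 0% and 100% degradation.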
A general note: With HiBiT, luminescence reflects the tagged protein that the partner subunit can reach.

Test [2] concerns the target T2, HiBit-BRG1 fusion protein in stable HeLa cell line expressing HiBit-BRG1 and LgBit (Homo sapiens, UniProt P51532).
T2 construct: expressed in transfected cells
Kind of test: HiBiT-BRG1 cell-based degradation assay (Nano-Glo HiBiT, 24 h). The conditions noted are these: HeLa HiBit-BRG1/LgBit cells; for DC50: read-out: BRMG1 HiBit Degradation IC50; for Dmax: top dose 30 μM, read-out: BRG1 HiBit Degradation Maximum (%). Put shortly: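 Stable HeLa line co-expressing HiBiT-BRG1 and LgBiT, compound-treated 24 h; luminescence read after Nano-Glo HiBiT lytic reagent. % degradation normalised between DMSO (high control) and 2 μM reference BRM/BRG1 degrader (low control).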

T2 sequence (P51532 whole entry, the tested form may be a part): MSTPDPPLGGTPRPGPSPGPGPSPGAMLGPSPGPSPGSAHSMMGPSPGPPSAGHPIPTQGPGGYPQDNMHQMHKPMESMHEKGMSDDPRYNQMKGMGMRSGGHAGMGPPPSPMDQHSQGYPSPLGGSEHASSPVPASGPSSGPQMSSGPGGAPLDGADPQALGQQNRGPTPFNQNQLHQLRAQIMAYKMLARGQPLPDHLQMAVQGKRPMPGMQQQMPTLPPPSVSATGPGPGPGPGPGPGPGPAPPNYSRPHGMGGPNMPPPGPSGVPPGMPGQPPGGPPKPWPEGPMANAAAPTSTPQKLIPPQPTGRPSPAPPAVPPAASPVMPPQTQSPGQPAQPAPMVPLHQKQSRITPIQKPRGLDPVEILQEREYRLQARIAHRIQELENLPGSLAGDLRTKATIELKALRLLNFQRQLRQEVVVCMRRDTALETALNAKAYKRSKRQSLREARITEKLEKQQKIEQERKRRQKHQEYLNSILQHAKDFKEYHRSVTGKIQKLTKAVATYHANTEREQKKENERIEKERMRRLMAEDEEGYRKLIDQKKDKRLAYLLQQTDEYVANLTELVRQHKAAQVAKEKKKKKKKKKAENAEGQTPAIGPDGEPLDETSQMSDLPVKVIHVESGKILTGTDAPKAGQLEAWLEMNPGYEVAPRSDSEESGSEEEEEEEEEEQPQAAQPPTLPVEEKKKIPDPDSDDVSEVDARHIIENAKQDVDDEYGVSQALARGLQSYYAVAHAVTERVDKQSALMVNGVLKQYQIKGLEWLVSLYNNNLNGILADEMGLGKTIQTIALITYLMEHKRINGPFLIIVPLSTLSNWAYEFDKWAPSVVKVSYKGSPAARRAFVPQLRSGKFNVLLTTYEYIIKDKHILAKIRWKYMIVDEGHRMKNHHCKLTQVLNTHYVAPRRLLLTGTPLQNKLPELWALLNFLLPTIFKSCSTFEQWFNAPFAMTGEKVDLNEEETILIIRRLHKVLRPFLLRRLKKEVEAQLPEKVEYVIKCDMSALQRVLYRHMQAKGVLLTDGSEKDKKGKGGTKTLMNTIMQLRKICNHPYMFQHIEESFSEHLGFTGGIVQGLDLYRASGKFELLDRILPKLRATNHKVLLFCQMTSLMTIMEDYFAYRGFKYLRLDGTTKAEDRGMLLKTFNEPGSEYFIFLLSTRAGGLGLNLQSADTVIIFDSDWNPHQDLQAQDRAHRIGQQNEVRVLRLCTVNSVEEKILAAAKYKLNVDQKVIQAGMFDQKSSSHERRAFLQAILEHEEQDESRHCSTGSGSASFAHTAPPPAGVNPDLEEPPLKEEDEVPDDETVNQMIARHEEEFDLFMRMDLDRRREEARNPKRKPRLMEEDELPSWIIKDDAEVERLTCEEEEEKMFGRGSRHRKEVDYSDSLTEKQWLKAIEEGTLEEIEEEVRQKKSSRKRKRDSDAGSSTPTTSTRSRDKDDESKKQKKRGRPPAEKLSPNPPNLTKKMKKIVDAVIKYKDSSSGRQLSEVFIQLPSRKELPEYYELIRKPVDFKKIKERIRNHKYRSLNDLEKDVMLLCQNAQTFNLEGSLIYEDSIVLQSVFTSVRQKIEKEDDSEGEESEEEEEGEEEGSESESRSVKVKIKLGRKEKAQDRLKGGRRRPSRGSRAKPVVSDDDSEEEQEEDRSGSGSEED
T1 sequence (P51531 whole entry, the tested form may be a part): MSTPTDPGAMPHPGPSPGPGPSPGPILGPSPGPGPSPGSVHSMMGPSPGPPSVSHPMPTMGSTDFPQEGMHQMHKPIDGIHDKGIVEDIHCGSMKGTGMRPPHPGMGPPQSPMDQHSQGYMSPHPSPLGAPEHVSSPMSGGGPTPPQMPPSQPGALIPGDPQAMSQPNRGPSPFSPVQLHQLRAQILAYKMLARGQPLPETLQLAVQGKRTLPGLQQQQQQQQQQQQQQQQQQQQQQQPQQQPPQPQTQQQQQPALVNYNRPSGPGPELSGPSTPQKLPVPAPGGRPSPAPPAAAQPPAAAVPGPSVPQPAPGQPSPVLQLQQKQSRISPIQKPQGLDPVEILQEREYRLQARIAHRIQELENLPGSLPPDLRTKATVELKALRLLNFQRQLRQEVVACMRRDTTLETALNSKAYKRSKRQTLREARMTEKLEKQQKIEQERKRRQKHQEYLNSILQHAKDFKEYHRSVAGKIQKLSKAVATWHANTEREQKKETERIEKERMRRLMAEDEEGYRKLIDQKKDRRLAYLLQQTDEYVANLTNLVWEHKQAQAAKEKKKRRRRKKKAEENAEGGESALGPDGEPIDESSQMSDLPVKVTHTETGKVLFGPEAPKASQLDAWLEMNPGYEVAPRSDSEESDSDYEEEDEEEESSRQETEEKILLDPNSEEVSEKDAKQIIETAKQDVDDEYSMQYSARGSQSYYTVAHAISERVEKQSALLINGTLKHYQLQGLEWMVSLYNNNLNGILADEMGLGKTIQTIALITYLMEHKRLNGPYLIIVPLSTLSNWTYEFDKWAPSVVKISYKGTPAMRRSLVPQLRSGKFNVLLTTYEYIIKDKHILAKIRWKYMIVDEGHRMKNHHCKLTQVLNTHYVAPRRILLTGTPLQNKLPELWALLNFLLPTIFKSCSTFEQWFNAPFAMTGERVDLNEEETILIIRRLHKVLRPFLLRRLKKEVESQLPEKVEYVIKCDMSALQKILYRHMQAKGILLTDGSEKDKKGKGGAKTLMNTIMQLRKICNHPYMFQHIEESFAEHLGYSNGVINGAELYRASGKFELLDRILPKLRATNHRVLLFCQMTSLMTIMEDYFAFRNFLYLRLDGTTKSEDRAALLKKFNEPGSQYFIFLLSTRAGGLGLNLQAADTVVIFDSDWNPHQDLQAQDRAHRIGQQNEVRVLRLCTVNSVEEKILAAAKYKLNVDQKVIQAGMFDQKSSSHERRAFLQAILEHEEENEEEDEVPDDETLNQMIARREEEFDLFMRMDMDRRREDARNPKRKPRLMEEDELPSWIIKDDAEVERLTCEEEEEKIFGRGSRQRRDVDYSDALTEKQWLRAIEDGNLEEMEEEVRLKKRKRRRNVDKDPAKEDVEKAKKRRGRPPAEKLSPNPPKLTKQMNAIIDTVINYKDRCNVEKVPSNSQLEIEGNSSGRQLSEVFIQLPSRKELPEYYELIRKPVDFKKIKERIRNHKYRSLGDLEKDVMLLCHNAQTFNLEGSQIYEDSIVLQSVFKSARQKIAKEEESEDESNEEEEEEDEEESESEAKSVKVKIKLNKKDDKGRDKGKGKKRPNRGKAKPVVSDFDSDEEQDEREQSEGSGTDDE

For the molecule `Cc1ncsc1-c1ccc([C@H](C)NC(=O)[C@@H]2C[C@@H](O)CN2C(=O)[C@@H](c2cc(N3CCC(Oc4ccc5nnc(-c6ccccc6O)cc5c4)CC3)no2)C(C)C)cc1` [Compound 182, (2S,4R)-4-hydroxy-1-((R)-2-(3-(4-((3-(2-hydroxyphenyl)cinnolin-6-yl)oxy)piperidin-1-yl)isoxazol-5-yl)-3-methylbutanoyl)-N-((S)-1-(4-(4-methylthiazol-5-yl)phenyl)ethyl)pyrrolidine-2-carboxamide], in test [1], the DC50 is under 10 nM and the “BRM HiBit Degradation Maximum (%)” value is reported as “A (“A” indicates maximum degradation ≥75%)”. Besides, in test [2], the DC50 was over 10 nM and the Dmax was over 75%.

As to `Cc1ncsc1-c1ccc([C@H](C)NC(=O)[C@@H]2C[C@@H](O)CN2C(=O)[C@@H](c2cc(N3CCC(Oc4ccc5cc(-c6ccccc6O)nnc5c4)CC3)no2)C(C)C)cc1` [Compound 183, (2S,4R)-4-hydroxy-1-((R)-2-(3-(4-((3-(2-hydroxyphenyl)cinnolin-7-yl)oxy)piperidin-1-yl)isoxazol-5-yl)-3-methylbutanoyl)-N-((S)-1-(4-(4-methylthiazol-5-yl)phenyl)ethyl)pyrrolidine-2-carboxamide], in test [1], the DC50 is under 10 nM and the “BRM HiBit Degradation Maximum (%)” value was “A (“A” indicates maximum degradation ≥75%)”. Also, in test [2], the DC50 is over 10 nM and the Dmax is over 50%.

In the case of `Cc1ncsc1-c1ccc([C@H](C)NC(=O)[C@@H]2C[C@@H](O)CN2C(=O)[C@@H](c2cc(N3CC4(CC(Oc5ccc6nnc(-c7ccccc7O)cc6c5)C4)C3)no2)C(C)C)cc1` [Compound 184, (2S,4R)-4-hydroxy-1-((R)-2-(3-(6-((3-(2-hydroxyphenyl)cinnolin-6-yl)oxy)-2-azaspiro[3.3]heptan-2-yl)isoxazol-5-yl)-3-methylbutanoyl)-N-((S)-1-(4-(4-methylthiazol-5-yl)phenyl)ethyl)pyrrolidine-2-carboxamide], in test [1], the DC50 is under 10 nM and the “BRM HiBit Degradation Maximum (%)” value was “A (“A” indicates maximum degradation ≥75%)”. Further, in test [2], the DC50 was over 10 nM and the Dmax was over 50%.

Regarding `Cc1ncsc1-c1ccc([C@H](C)NC(=O)[C@@H]2C[C@@H](O)CN2C(=O)[C@H](C(C)C)n2cc(C3CC4(C3)CN(c3ccc5cc(-c6ccccc6O)nnc5c3)C4)nn2)cc1` [Compound 186, (2S,4R)-4-hydroxy-1-[(2S)-2-(4-{2-[3-(2-hydroxyphenyl)cinnolin-7-yl]-2-azaspiro[3.3]heptan-6-yl}-1,2,3-triazol-1-yl)-3-methylbutanoyl]-N-[(1S)-1-[4-(4-methyl-1,3-thiazol-5-yl)phenyl]ethyl]pyrrolidine-2-carboxamide], in test [1], the DC50 is under 10 nM and the “BRM HiBit Degradation Maximum (%)” value is recorded as “A (“A” indicates maximum degradation ≥75%)”. Moreover, in test [2], the DC50 was under 10 nM and the Dmax is over 75%.

As for `Cc1ncsc1-c1ccc([C@H](C)NC(=O)[C@@H]2C[C@@H](O)CN2C(=O)[C@@H](c2cc(N3C[C@]4(C)CN(c5ccc6cc(-c7ccccc7O)nnc6c5)C[C@]4(C)C3)no2)C(C)C)cc1` [Compound 187, (2S,4R)-4-hydroxy-1-((R)-2-(3-((3aR,6aS)-5-(3-(2-hydroxyphenyl)cinnolin-7-yl)-3a,6a-dimethylhexahydropyrrolo[3,4-c]pyrrol-2(1H)-yl)isoxazol-5-yl)-3-methylbutanoyl)-N-((S)-1-(4-(4-methylthiazol-5-yl)phenyl)ethyl)pyrrolidine-2-carboxamide], in test [1], the DC50 is under 10 nM and the “BRM HiBit Degradation Maximum (%)” value is “A (“A” indicates maximum degradation ≥75%)”. Moreover, in test [2], the DC50 was over 10 nM and the Dmax is over 75%.

For `Cc1ncsc1-c1ccc([C@H](C)NC(=O)[C@@H]2C[C@@H](O)CN2C(=O)[C@@H](c2cc(N3C[C@]4(C)CN(c5ccc6nnc(-c7ccccc7O)cc6c5)C[C@]4(C)C3)no2)C(C)C)cc1` [Compound 188, (2S,4R)-4-hydroxy-1-((R)-2-(3-((3aR,6aS)-5-(3-(2-hydroxyphenyl)cinnolin-6-yl)-3a,6a-dimethylhexahydropyrrolo[3,4-c]pyrrol-2(1H)-yl)isoxazol-5-yl)-3-methylbutanoyl)-N-((S)-1-(4-(4-methylthiazol-5-yl)phenyl)ethyl)pyrrolidine-2-carboxamide], in test [1], the DC50 is over 10 nM and the “BRM HiBit Degradation Maximum (%)” value is listed as “A (“A” indicates maximum degradation ≥75%)”. Further, in test [2], the DC50 was over 10 nM and the Dmax is over 75%.

As to `Cc1ncsc1-c1ccc([C@H](C)NC(=O)[C@@H]2C[C@@H](O)CN2C(=O)[C@H](C(C)C)n2cc(N3CC4(CN(c5ccc6nnc(-c7ccccc7O)cc6c5)CCO4)C3)nn2)cc1` [Compound 189, (2S,4R)-4-hydroxy-1-((S)-2-(4-(8-(3-(2-hydroxyphenyl)cinnolin-6-yl)-5-oxa-2,8-diazaspiro[3.5]nonan-2-yl)-1H-1,2,3-triazol-1-yl)-3-methylbutanoyl)-N-((S)-1-(4-(4-methylthiazol-5-yl)phenyl)ethyl)pyrrolidine-2-carboxamide], in test [1], the DC50 is under 10 nM and the “BRM HiBit Degradation Maximum (%)” value is “A (“A” indicates maximum degradation ≥75%)”. Moreover, the Dmax in test [2] was under 50%.

On to `Cc1ncsc1-c1ccc([C@H](C)NC(=O)[C@@H]2C[C@@H](O)CN2C(=O)[C@H](C(C)C)n2cc(-c3ccc4nnc(-c5ccccc5O)cc4c3Cl)nn2)cc1` [Compound 190, (2S,4R)-1-((S)-2-(4-(5-chloro-3-(2-hydroxyphenyl)cinnolin-6-yl)-1H-1,2,3-triazol-1-yl)-3-methylbutanoyl)-4-hydroxy-N-((S)-1-(4-(4-methylthiazol-5-yl)phenyl)ethyl)pyrrolidine-2-carboxamide], for which, in test [1], the DC50 was under 10 nM and the “BRM HiBit Degradation Maximum (%)” value was “A (“A” indicates maximum degradation ≥75%)”. In addition, in test [2], the Dmax was under 50%.

For `Cc1ncsc1-c1ccc([C@H](C)NC(=O)[C@@H]2C[C@@H](O)CN2C(=O)C(c2cc(N3CC4(CN(c5cc(C(F)F)c6cc(-c7ccccc7O)nnc6c5)C4)C3)no2)C(C)C)cc1` (stereo partly drawn) [Compound 191, (2S,4R)-1-(2-(3-(6-(5-(difluoromethyl)-3-(2-hydroxyphenyl)cinnolin-7-yl)-2,6-diazaspiro[3.3]heptan-2-yl)isoxazol-5-yl)-3-methylbutanoyl)-4-hydroxy-N-((S)-1-(4-(4-methylthiazol-5-yl)phenyl)ethyl)pyrrolidine-2-carboxamide], in test [1], the DC50 is over 10 nM and the “BRM HiBit Degradation Maximum (%)” value is given as “A (“A” indicates maximum degradation ≥75%)”. Further, the Dmax in test [2] is under 50%.

Turning to `Cc1ncsc1-c1ccc([C@H](C)NC(=O)[C@@H]2C[C@@H](O)CN2C(=O)[C@H](C(C)C)n2cc(N3CCC4(CCN(c5ccc6cc(-c7ccccc7O)nnc6c5)CC4)CC3)nn2)cc1` [Compound 192, (2S,4R)-4-hydroxy-1-((S)-2-(4-(9-(3-(2-hydroxyphenyl)cinnolin-7-yl)-3,9-diazaspiro [5.5]undecan-3-yl)-1H-1,2,3-triazol-1-yl)-3-methylbutanoyl)-N-((S)-1-(4-(4-methylthiazol-5-yl)phenyl)ethyl)pyrrolidine-2-carboxamide], in test [1], the DC50 is under 10 nM and the “BRM HiBit Degradation Maximum (%)” value is reported as “A (“A” indicates maximum degradation ≥75%)”. Moreover, in test [2], the DC50 is under 10 nM and the Dmax is over 75%.

Take `Cc1ncsc1-c1ccc([C@H](C)NC(=O)[C@@H]2C[C@@H](O)CN2C(=O)[C@H](C2CCC2)n2cc(N3CC4(CC(c5ccc6cc(-c7ccccc7O)nnc6c5)C4)C3)nn2)cc1` [Compound 193, (2S,4R)-1-((S)-2-cyclobutyl-2-(4-(6-(3-(2-hydroxyphenyl)cinnolin-7-yl)-2-azaspiro[3.3]heptan-2-yl)-1H-1,2,3-triazol-1-yl)acetyl)-4-hydroxy-N-((S)-1-(4-(4-methylthiazol-5-yl)phenyl)ethyl)pyrrolidine-2-carboxamide]: in test [1], the DC50 was under 10 nM and the “BRM HiBit Degradation Maximum (%)” value is “A (“A” indicates maximum degradation ≥75%)”. Besides, in test [2], the DC50 is over 10 nM and the Dmax was over 75%.

With `Cc1ncsc1-c1ccc([C@H](C)NC(=O)[C@@H]2C[C@@H](O)CN2C(=O)[C@@H](c2cc(N3CC4(CN(c5ccc6cc(-c7ccccc7O)nnc6c5)C4)C3)sn2)C(C)C)cc1` [Compound 195, (2S,4R)-4-hydroxy-1-[(2R)-2-(5-{6-[3-(2-hydroxyphenyl)cinnolin-7-yl]-2,6-diazaspiro[3.3]heptan-2-yl}-1,2-thiazol-3-yl)-3-methylbutanoyl]-N-[(1S)-1-[4-(4-methyl-1,3-thiazol-5-yl)phenyl]ethyl]pyrrolidine-2-carboxamide], in test [1], the DC50 was under 10 nM and the “BRM HiBit Degradation Maximum (%)” value is “A (“A” indicates maximum degradation ≥75%)”. Besides, the Dmax in test [2] was over 50%.

Consider `COC[C@@H]1CN(c2cc([C@H](C(=O)N3C[C@H](O)C[C@H]3C(=O)N[C@@H](C)c3ccc(-c4scnc4C)cc3)C(C)C)on2)CCN1c1ccc2cc(-c3ccccc3O)nnc2c1` [Compound 196, (2S,4R)-4-hydroxy-1-((R)-2-(3-((S)-4-(3-(2-hydroxyphenyl)cinnolin-7-yl)-3-(methoxymethyl)piperazin-1-yl)isoxazol-5-yl)-3-methylbutanoyl)-N-((S)-1-(4-(4-methylthiazol-5-yl)phenyl)ethyl)pyrrolidine-2-carboxamide], for which, in test [1], the DC50 was over 10 nM and the “BRM HiBit Degradation Maximum (%)” value is given as “B (“B” indicates maximum degradation ≥50%)”. In addition, in test [2], the Dmax is under 50%.
